Experimental data published in patent US8778985B2, “Inhibiting amyloid-beta peptide/rage interaction at the blood-brain barrier” (The University of Rochester, priority 2006, dated 2014).

Legend:
[1] = test system: RAGE-transfected CHO cells; assay: Thiobarbituric acid reactive substance (TBARS) generation (Aβ/RAGE-induced oxidant stress) in RAGE-transfected CHO cells; assay type: cell-based; conditions: 1 μM Aβ40; FPS2 at 50 nM or 500 nM
[2] = test system: APPsw+/− mice; assay: CBF response to brain activation (whisker stimulation), chronic FPS2 treatment of APPsw+/− mice; assay type: in vivo; conditions: 1 mg/kg per day i.p. for two months from 8 months of age
Protocol: (A) Percent increase in cerebral blood flow (CBF) in response to brain activation in mice treated with vehicle (open bar) or FPS2 (closed bar). (B-C) novel object location (B) and novel object recognition (C) expressed as percent exploratory preference in APPsw^+/− mice treated with vehicle (open bar) or FPS2 (closed bar). FPS2 (1 mg/kg per day) was intraperitoneally administered for two months beginning at the age of 8 months old mice. Values are means±s.e.m, n=5-6 per group.
APPsw^+/− mice were treated with FPS2 (1 mg/kg) or with vehicle daily by intraperitoneal injection for two months starting at 8 months old. At the end of the treatment period functional changes in cerebral blood flow (CBF) to brain activation, and memory tests were determined. Brain and plasma Aβ levels were also determined in FPS2 and vehicle treated mice. […]
Compounds were synthesized in parallel using semiautomated chemical reactions. […] Purity was assessed by reverse-phase gradient HPLC. […] After two months of treatment, (i) the cerebral blood flow response to brain activation (whisker stimulation) was measured and (ii) behavioral tests including operant learning, novel object location (NOL), and novel object recognition (NOR) were performed. After these functional tests, the mice were sacrificed and their brains analyzed for Aβ40, Aβ42, and amyloid levels. • CBF response to brain activation. […]

`CC(CC(=O)NCCCN(C(=O)c1cc([N+](=O)[O-])cc([N+](=O)[O-])c1)c1ccccc1)CC(C)(C)C` (centres unmarked) [FPS2, 3,5-dinitro-N-phenyl-N-[3-[(3,5,5-trimethyl-1-oxohexyl)amino]propyl]-(9Cl)-benzamide] was tested. Which TBARS generation [1] did it give?
The TBARS generation was “inhibited”.

What about the “increase of CBF during brain activation compared to vehicle” value [2] of the same molecule?
The value was “about 50%”.
